Key:
Malat-1 [1] = assay: Malat-1 RNA by RT-qPCR in MHT cells; autophagy modulator, then oligonucleotide by free uptake; assay type: cell-based, mouse; conditions: for effect of autophagy modulator on modified oligonucleotide activity (in words): MOE gapmer 399462, relative to DMSO; for effect of autophagy modulator on antisense activity (in words): cEt gapmer 556089, relative to DMSO
Protocol: MHT cells (a mouse hepatocellular carcinoma cell line) were plated at 20,000 cells/well and treated with DMSO (control) or an autophagy modulator for 24 hours at the concentrations indicated in Table 2 below. 3-MA, BafA1, AZD8055, and leupeptin are […]. […] Fourteen hours after the addition of autophagy modulators, 10 μM of a modified control oligonucleotide or of a modified antisense oligonucleotide was added by free uptake for ten hours. The modified oligonucleotides, shown in Table 1 below, are 3-10-3 cEt gapmers in which every internucleoside linkage is a phosphorothioate internucleoside linkage. The three 5′-terminal nucleosides and the three 3′-terminal nucleosides of each oligonucleotide each comprise a cEt modified sugar moiety. The remaining ten nucleosides of each oligonucleotide each comprise an unmodified, 2′-deoxy sugar moiety.
Using the primer probe sets described in Table 3 below, RT-qPCR analysis was performed to detect RNA levels of Malat-1, shown in Table 4 and markers of autophagy, (Rab7, LAMP2, Atg7, ULK1, ULK2, Atg5, Beclin, and c-Jun), shown in Table 5. Results were normalized to cyclophilin A levels. To control for global effects of autophagy modulators on gene expression, Malat-1 RNA levels after treatment with an antisense oligonucleotide and an autophagy modulator were normalized to Malat-1 RNA levels in cells treated with control Compound No. 549148 and the same autophagy modulator.
MHT cells were plated at 20,000 cells/well and treated with DMSO (control) or an autophagy modulator for 24 hours, at the concentrations indicated Table 7 below. Fourteen hours after the addition of autophagy modulator, control or antisense oligonucleotides (see Table 6) were added at 1 μM, 2.5 μM, 5 μM, or 10 μM by free uptake for ten hours. The modified oligonucleotides, shown in Table 6 below, are 5-10-5 MOE gapmers in which every internucleoside linkage is a phosphorothioate internucleoside linkage. The five 5′-terminal nucleosides and the five 3′-terminal nucleosides of each oligonucleotide each comprise a 2′-MOE modified sugar moiety. The remaining ten nucleosides of each oligonucleotide each comprise an unmodified, 2′-deoxy sugar moiety.
RT-qPCR analysis was performed to detect RNA levels of Malat-1 using primer probe set 15877 (described in Example 1). In order to control for global effects of autophagy modulators on gene expression, Malat-1 RNA levels after treatment with an antisense oligonucleotide and an autophagy modulator were normalized to Malat-1 RNA levels in cells treated with control Compound No. 141923 and the same autophagy modulator. Each table below represents results from an individual assay.

Malat-1 [2] = assay: Malat-1 RNA by RT-qPCR in A431 cells; assay type: cell-based, human; conditions: MOE gapmer
Protocol: RT-qPCR analysis was performed to detect RNA levels of Malat-1 using primer probe set RTS2736. Results were normalized to cyclophilin A levels (measured using HTS3936). […] Each table below represents results from an individual assay.

[3] = test system: mTOR kinase activity (pS6/S6 levels); assay: Liver protein analysis in mice: pS6/S6; assay type: in vivo; conditions: Table 34; mouse liver 24 h; oligonucleotide 5 mg/kg (or PBS); Treatment Rapamycin 5 mg/kg at 0, 12, 22 h
Protocol: The following experiments were performed to determine if the effects of autophagy modulators on antisense activity in vitro can be observed in vivo. […] Following administration of modified oligonucleotide, mice were administered 1% DMSO or 5 mg/kg AZD8055 in 1% DMSO at three time points over 24 hours: at the time of administration of the modified oligonucleotide, and 12 and 22 hours after administration of the modified oligonucleotide. A group of control mice was administered PBS at time 0 and 1% DMSO at 0, 12, and 22 hours. Mice were sacrificed at 24 hours after administration of the modified oligonucleotide and tissues were collected for analysis.
Protein analysis was carried out on liver tissue using standard procedures. All proteins were normalized to α-tubulin. […] The antibody against LC3B (ab48394) was purchased from Abcam. […] Antibody against P62 (GP62-C) was purchased from Progen.
A group of control mice was administered PBS at time 0 and 1% DMSO at 0, 12, and 22 hours. Mice were sacrificed at 24 hours after administration of the modified oligonucleotide and tissues were collected for analysis. […]

LC3B = assay: Liver protein analysis in mice: LC3B II/I ratio; assay type: in vivo; conditions: Table 34; mouse liver 24 h; oligonucleotide 5 mg/kg (or PBS); Treatment Rapamycin 5 mg/kg at 0, 12, 22 h
Protocol: (§1) The following experiments were performed to determine if the effects of autophagy modulators on antisense activity in vitro can be observed in vivo. Groups of 3-4 8-week-old male C57bl/6J mice were administered 5 mg/kg control oligonucleotide 141923, or 5 mg/kg antisense oligonucleotide 399462. Following administration of modified oligonucleotide, mice were administered 1% DMSO or 5 mg/kg AZD8055 in 1% DMSO at three time points over 24 hours: at the time of administration of the modified oligonucleotide, and 12 and 22 hours after administration of the modified oligonucleotide. A group of control mice was administered PBS at time 0 and 1% DMSO at 0, 12, and 22 hours. Mice were sacrificed at 24 hours after administration of the modified oligonucleotide and tissues were collected for analysis.
(§2) Autophagy activation was confirmed in livers by determining suppression of mTOR kinase activity (pS6/S6 levels), determining an increased LC3B II/I ratio (a marker for the formation of autophagosomes), and determining p62 degradation (related to the clearance of autophagosomes). Protein analysis was carried out on liver tissue using standard procedures. All proteins were normalized to α-tubulin. Phospho-S6 Ribosomal Protein (Ser240/244) (2215S), and S6 Ribosomal Protein (2217S) antibodies were obtained from Cell Signaling Technology. The antibody against LC3B (ab48394) was purchased from Abcam. […]

p62 = assay: Liver protein analysis in mice: p62; assay type: in vivo; conditions: Table 34; mouse liver 24 h; oligonucleotide 5 mg/kg (or PBS); Treatment Rapamycin 5 mg/kg at 0, 12, 22 h
Protocol: as §1, §2

Malat-1 [4] = assay: MALAT-1 RNA in mouse liver by RT-qPCR; assay type: in vivo; conditions: Table 35; mouse liver 24 h; oligonucleotide 5 mg/kg; rapamycin 5 mg/kg at 0, 12, 22 h
Protocol: The following experiments were performed to determine if the effects of autophagy modulators on antisense activity in vitro can be observed in vivo. […] Mice were sacrificed at 24 hours after administration of the modified oligonucleotide and tissues were collected for analysis. […] Atg7 mRNA levels are a marker of the induction of autophagy in treated mouse livers. Results are presented as percent change of RNA, relative to PBS control treated with DMSO, normalized to mouse cyclophilin A measured using mouse primer probe set Cyclophilin-A (forward sequence [NT], designated herein as SEQ ID NO: 38; reverse sequence [NT], designated herein as SEQ ID NO: 39; probe sequence [NT], designated herein as SEQ ID NO: 40). […] Following administration of modified oligonucleotide, groups of mice were either allowed free access to chow (control) or fasted overnight (16 hr fast). Mice were sacrificed at 16 hours after administration of the modified oligonucleotide and tissues were collected for analysis. […] Atg7 mRNA levels are a marker of the induction of autophagy in treated mouse livers. Results are presented in Table 33 relative to mice treated with PBS and allowed normal access to chow. […] Mice were sacrificed at 24 hours after administration of the modified oligonucleotide and tissues were collected for analysis. […] Atg7 mRNA levels are a marker of the induction of autophagy in treated mouse livers. […] RNA was extracted from liver tissue for real-time RTPCR analysis of MALAT1 RNA expression. Primer probe set 15877 was used to measure mouse MALAT1 RNA levels. Results are presented as percent change of RNA, relative to PBS control, normalized to mouse cyclophilin A measured using mouse primer probe set Cyclophilin-A. […] RNA was extracted from liver tissue for real-time RTPCR analysis of MALAT1 RNA expression. Primer probe set 15877 was used to measure mouse MALAT1 RNA levels. Results are presented as percent change of RNA, relative to PBS control, normalized to mouse cyclophilin A measured using mouse primer probe set Cyclophilin-A.

Atg7 = Atg7 mRNA in mouse liver by RT-qPCR; assay type: in vivo; conditions: Table 35; mouse liver 24 h; oligonucleotide 5 mg/kg; rapamycin 5 mg/kg at 0, 12, 22 h
Protocol: The following experiments were performed to determine if the effects of autophagy modulators on antisense activity in vitro can be observed in vivo. […] Mice were sacrificed at 24 hours after administration of the modified oligonucleotide and tissues were collected for analysis. […] Atg7 mRNA levels are a marker of the induction of autophagy in treated mouse livers. Results are presented as percent change of RNA, relative to PBS control treated with DMSO, normalized to mouse cyclophilin A measured using mouse primer probe set Cyclophilin-A (forward sequence [NT], designated herein as SEQ ID NO: 38; reverse sequence [NT], designated herein as SEQ ID NO: 39; probe sequence [NT], designated herein as SEQ ID NO: 40). […] Following administration of modified oligonucleotide, groups of mice were either allowed free access to chow (control) or fasted overnight (16 hr fast). Mice were sacrificed at 16 hours after administration of the modified oligonucleotide and tissues were collected for analysis. […] Atg7 mRNA levels are a marker of the induction of autophagy in treated mouse livers. Results are presented in Table 33 relative to mice treated with PBS and allowed normal access to chow. […] Mice were sacrificed at 24 hours after administration of the modified oligonucleotide and tissues were collected for analysis. […]

SMILES	effect of autophagy modulator on modified oligonucleotide activity (in words) (Malat-1 [1])	effect of autophagy modulator on modified oligonucleotide activity (in words) (Malat-1 [2])	effect of autophagy modulator on antisense activity (in words) (Malat-1 [1])	other results
CC(C)C(=O)CN1c2nc(N3CCOC[C@H]3C)cc(=O)n2CC[C@H]1C(F)(F)F [VPS34-IN2]	significantly enhanced modified oligonucleotide activity	significantly enhanced modified oligonucleotide activity		
CC[C@]1(O)C[C@@H]2CN(CCc3c([nH]c4ccccc34)[C@@](C(=O)OC)(c3cc4c(cc3OC)N(C)[C@H]3[C@@](O)(C(=O)OC)[C@H](OC(C)=O)[C@]5(CC)C=CCN6CC[C@]43[C@@H]65)C2)C1 [Vinblastine]	significantly enhanced modified oligonucleotide activity			
CO/C1=C\C(C)=C\[C@@H](C)[C@@H](O)[C@@H](C)C/C(C)=C/C=C/[C@H](OC)[C@@H]([C@@H](C)[C@@H](O)[C@H](C)[C@@]2(O)C[C@@H](O)[C@H](C)[C@@H](C(C)C)O2)OC1=O [BafA1, Bafilomycin A1]	significantly enhanced modified oligonucleotide activity	significantly enhanced modified oligonucleotide activity	significantly enhanced antisense activity	
CCOC(=O)[C@H]1O[C@@H]1C(=O)N[C@@H](CC(C)C)C(=O)NCCC(C)C [E64D]	reduced activity of modified oligonucleotide			
CO[C@H]1C[C@@H]2CC[C@@H](C)[C@@](O)(O2)C(=O)C(=O)N2CCCC[C@H]2C(=O)O[C@H]([C@H](C)C[C@@H]2CC[C@@H](O)[C@H](OC)C2)CC(=O)[C@H](C)/C=C(\C)[C@@H](O)[C@@H](OC)C(=O)[C@H](C)C[C@H](C)/C=C/C=C/C=C/1C [Rapamycin]				pS6/S6 ratio [3]: 0.7; LC3B II/I ratio (LC3B): 1.3; P62 (p62): 0.8; Malat-1 level (% relative to PBS/DMSO mice) (Malat-1 [4]): 89%; Atg7 level (% relative to PBS/DMSO mice) (Atg7): 111%
CC(=O)N[C@@H](CC(C)C)C(=O)N[C@@H](CC(C)C)C(=O)N[C@H](C=O)CCCNC(=N)N [Leupeptin]	significantly enhanced modified oligonucleotide activity	significantly enhanced modified oligonucleotide activity	significantly enhanced antisense activity	
Cn1cnc(N)c2ncnc1-2 [3-MA, 3-methyladenine]	significantly enhanced modified oligonucleotide activity		significantly enhanced antisense activity	

Reference: patent US20210130826A1, “METHODS OF MODULATING ANTISENSE ACTIVITY” (IONIS PHARMACEUTICALS, INC., priority 2018, published 2021)
